In US20180200257A1, “METHODS FOR THE TREATMENT OF INFLAMMATORY DISORDERS” (Galapagos NV, priority 2015, published 2018):

Tested on: subjects with moderately to severely active RA who have an inadequate response to methotrexate (MTX)
Assay: Study 2 (monotherapy) - Creatinine levels
Type: in vivo, human
From the text: Randomized, double-blind, placebo-controlled, multicenter, phase IIb dose finding study of Compound 1 (dosed as a [Compound 1:HCl:3H2O]) administered for 24 weeks as monotherapy to subjects with moderately to severely active rheumatoid arthritis who have an inadequate response to methotrexate alone
Double-blind, placebo-controlled, monotherapy study in subjects with moderately to severely active RA who have an inadequate response to methotrexate (MTX) (oral or parenteral).
280 subjects randomized to one of 3 doses of Compound 1 (dosed as a [Compound 1:HCl:3H2O]) or to placebo, given once daily (q.d.).
Twelve weeks of treatment with Compound 1 (dosed as a [Compound 1:HCl:3H2O]) at 50 mg, 100 mg, or 200 mg q.d.; or placebo. At Week 12, all subjects on placebo and the subjects on the 50 mg dose who have not achieved 20% improvement in swollen joint count (SJC66) and tender joint count (TJC68) will be assigned to 100 mg q.d. in a blinded fashion and will continue treatment until Week 24. Subjects in the other groups will maintain their randomized treatment until Week 24.
Creatinine levels determination is available at Quest Diagnostics, Clinical Trials, Quest House, 125-135 Staines Road, Hounslow, Middlesex, TW3 3JB, United Kingdom under Catalogue n# 82565. For Study 3, the data are obtained at BARC Europe, 3B,Industrie Park, Zwijnaarde, B-9052 Ghent, Belgium.
The Enzymatic method is based on the determination of sarcosine after conversion of creatinine with the aid of creatininase, creatinase, and sarcosine oxidase. The liberated hydrogen peroxide reacts with 4-aminophenazone and HTIB to form a quinone imine chromogen. The reaction is catalyzed by peroxidase. The color intensity is directly proportional to concentration of creatinine present and can be measured photometrically.
Subjects in the other groups maintained their randomized treatment until Week 24.

[1] = 50 mg q.d. non responders switching to 100 mg q.d. at week 12 (N = 15), week 0
[2] = 50 mg q.d. non responders switching to 100 mg q.d. at week 12 (N = 15), week 1
[3] = 50 mg q.d. non responders switching to 100 mg q.d. at week 12 (N = 15), week 2
[4] = 50 mg q.d. non responders switching to 100 mg q.d. at week 12 (N = 15), week 4
[5] = 50 mg q.d. non responders switching to 100 mg q.d. at week 12 (N = 15), week 8
[6] = 50 mg q.d. non responders switching to 100 mg q.d. at week 12 (N = 15), week 12
[7] = 50 mg q.d. non responders switching to 100 mg q.d. at week 12 (N = 15), week 16
[8] = 50 mg q.d. non responders switching to 100 mg q.d. at week 12 (N = 15), week 20
[9] = 50 mg q.d. non responders switching to 100 mg q.d. at week 12 (N = 15), week 24
[10] = 50 mg q.d. responders (N = 57), week 0
[11] = 50 mg q.d. responders (N = 57), week 1
[12] = 50 mg q.d. responders (N = 57), week 2
[13] = 50 mg q.d. responders (N = 57), week 4
[14] = 50 mg q.d. responders (N = 57), week 8
[15] = 50 mg q.d. responders (N = 57), week 12
[16] = 50 mg q.d. responders (N = 57), week 16
[17] = 50 mg q.d. responders (N = 57), week 20
[18] = 50 mg q.d. responders (N = 57), week 24
[19] = 100 mg q.d. (N = 70), 24 weeks results, week 0
[20] = 100 mg q.d. (N = 70), 24 weeks results, week 1
[21] = 100 mg q.d. (N = 70), 24 weeks results, week 2
[22] = 100 mg q.d. (N = 70), 24 weeks results, week 4
[23] = 100 mg q.d. (N = 70), 24 weeks results, week 8
[24] = 100 mg q.d. (N = 70), 24 weeks results, week 12
[25] = 100 mg q.d. (N = 70), 24 weeks results, week 16
[26] = 100 mg q.d. (N = 70), 24 weeks results, week 20
[27] = 100 mg q.d. (N = 70), 24 weeks results, week 24
[28] = 200 mg q.d. (N = 69), 24 weeks results, week 0
[29] = 200 mg q.d. (N = 69), 24 weeks results, week 1
[30] = 200 mg q.d. (N = 69), 24 weeks results, week 2
[31] = 200 mg q.d. (N = 69), 24 weeks results, week 4
[32] = 200 mg q.d. (N = 69), 24 weeks results, week 8
[33] = 200 mg q.d. (N = 69), 24 weeks results, week 12
[34] = 200 mg q.d. (N = 69), 24 weeks results, week 16
[35] = 200 mg q.d. (N = 69), 24 weeks results, week 20
[36] = 200 mg q.d. (N = 69), 24 weeks results, week 24
[37] = placebo switching to 100 mg q.d. at week 12 (N = 72), week 16
[38] = placebo switching to 100 mg q.d. at week 12 (N = 72), week 20
[39] = placebo switching to 100 mg q.d. at week 12 (N = 72), week 24

O=C(Nc1nc2cccc(-c3ccc(CN4CCS(=O)(=O)CC4)cc3)n2n1)C1CC1 [Compound 1, cyclopropanecarboxylic acid {5-[4-(1,1-dioxo-thiomorpholin-4-ylmethyl)-phenyl]-[1,2,4]triazolo[1,5-a]pyridin-2-yl}-amide]
Creatinine Mean CFB (50 mg q.d. (N = 72), week 0): 0.00 µmol/L | Creatinine Mean percentage CFB (50 mg q.d. (N = 72), week 0): 0.00% | Creatinine Mean CFB (50 mg q.d. (N = 72), week 1): 0.42 µmol/L | Creatinine Mean percentage CFB (50 mg q.d. (N = 72), week 1): 1.10% | Creatinine Mean CFB (50 mg q.d. (N = 72), week 2): 1.25 µmol/L | Creatinine Mean percentage CFB (50 mg q.d. (N = 72), week 2): 2.59% | Creatinine Mean CFB (50 mg q.d. (N = 72), week 4): 1.32 µmol/L | Creatinine Mean percentage CFB (50 mg q.d. (N = 72), week 4): 3.01% | Creatinine Mean CFB (50 mg q.d. (N = 72), week 8): 2.20 µmol/L | Creatinine Mean percentage CFB (50 mg q.d. (N = 72), week 8): 4.34% | Creatinine Mean CFB (50 mg q.d. (N = 72), week 12): 3.16 µmol/L | Creatinine Mean percentage CFB (50 mg q.d. (N = 72), week 12): 6.02% | Creatinine Mean CFB [1]: 0.0 µmol/L | Creatinine Mean percentage CFB [1]: 0.00% | Creatinine Mean CFB [2]: 1.1 µmol/L | Creatinine Mean percentage CFB [2]: 2.03% | Creatinine Mean CFB [3]: 2.0 µmol/L | Creatinine Mean percentage CFB [3]: 3.77% | Creatinine Mean CFB [4]: 0.6 µmol/L | Creatinine Mean percentage CFB [4]: 1.58% | Creatinine Mean CFB [5]: 6.2 µmol/L | Creatinine Mean percentage CFB [5]: 10.36% | Creatinine Mean CFB [6]: 0.0 µmol/L | Creatinine Mean percentage CFB [6]: 0.74% | Creatinine Mean CFB [7]: 5.9 µmol/L | Creatinine Mean percentage CFB [7]: 11.14% | Creatinine Mean CFB [8]: 4.5 µmol/L | Creatinine Mean percentage CFB [8]: 8.07% | Creatinine Mean CFB [9]: 5.2 µmol/L | Creatinine Mean percentage CFB [9]: 9.28% | Creatinine Mean CFB [10]: 0.0 µmol/L | Creatinine Mean percentage CFB [10]: 0.00% | Creatinine Mean CFB [11]: 0.2 µmol/L | Creatinine Mean percentage CFB [11]: 0.86% | Creatinine Mean CFB [12]: 1.0 µmol/L | Creatinine Mean percentage CFB [12]: 2.27% | Creatinine Mean CFB [13]: 1.5 µmol/L | Creatinine Mean percentage CFB [13]: 3.40% | Creatinine Mean CFB [14]: 1.1 µmol/L | Creatinine Mean percentage CFB [14]: 2.67% | Creatinine Mean CFB [15]: 4.0 µmol/L | Creatinine Mean percentage CFB [15]: 7.51% | Creatinine Mean CFB [16]: 1.9 µmol/L | Creatinine Mean percentage CFB [16]: 3.91% | Creatinine Mean CFB [17]: 3.6 µmol/L | Creatinine Mean percentage CFB [17]: 7.19% | Creatinine Mean CFB [18]: 1.6 µmol/L | Creatinine Mean percentage CFB [18]: 3.16% | Creatinine Mean CFB [19]: 0.0 µmol/L | Creatinine Mean percentage CFB [19]: 0.00% | Creatinine Mean CFB [20]: 1.2 µmol/L | Creatinine Mean percentage CFB [20]: 3.00% | Creatinine Mean CFB [21]: 1.5 µmol/L | Creatinine Mean percentage CFB [21]: 3.21% | Creatinine Mean CFB [22]: 1.1 µmol/L | Creatinine Mean percentage CFB [22]: 3.23% | Creatinine Mean CFB [23]: 3.2 µmol/L | Creatinine Mean percentage CFB [23]: 5.79% | Creatinine Mean CFB [24]: 1.7 µmol/L | Creatinine Mean percentage CFB [24]: 3.96% | Creatinine Mean CFB [25]: 2.9 µmol/L | Creatinine Mean percentage CFB [25]: 6.44% | Creatinine Mean CFB [26]: 2.3 µmol/L | Creatinine Mean percentage CFB [26]: 4.63% | Creatinine Mean CFB [27]: 2.0 µmol/L | Creatinine Mean percentage CFB [27]: 4.17% | Creatinine Mean CFB (100 mg q.d. (N = 70), week 0): 0.00 µmol/L | Creatinine Mean percentage CFB (100 mg q.d. (N = 70), week 0): 0.00% | Creatinine Mean CFB (100 mg q.d. (N = 70), week 1): 1.19 µmol/L | Creatinine Mean percentage CFB (100 mg q.d. (N = 70), week 1): 3.00% | Creatinine Mean CFB (100 mg q.d. (N = 70), week 2): 1.48 µmol/L | Creatinine Mean percentage CFB (100 mg q.d. (N = 70), week 2): 3.21% | Creatinine Mean CFB (100 mg q.d. (N = 70), week 4): 1.10 µmol/L | Creatinine Mean percentage CFB (100 mg q.d. (N = 70), week 4): 3.23% | Creatinine Mean CFB (100 mg q.d. (N = 70), week 8): 3.19 µmol/L | Creatinine Mean percentage CFB (100 mg q.d. (N = 70), week 8): 5.79% | Creatinine Mean CFB (100 mg q.d. (N = 70), week 12): 1.75 µmol/L | Creatinine Mean percentage CFB (100 mg q.d. (N = 70), week 12): 3.96% | Creatinine Mean CFB [28]: 0.0 µmol/L | Creatinine Mean percentage CFB [28]: 0.00% | Creatinine Mean CFB [29]: 4.7 µmol/L | Creatinine Mean percentage CFB [29]: 8.07% | Creatinine Mean CFB [30]: 5.0 µmol/L | Creatinine Mean percentage CFB [30]: 8.56% | Creatinine Mean CFB [31]: 4.3 µmol/L | Creatinine Mean percentage CFB [31]: 7.37% | Creatinine Mean CFB [32]: 4.8 µmol/L | Creatinine Mean percentage CFB [32]: 8.70% | Creatinine Mean CFB [33]: 3.8 µmol/L | Creatinine Mean percentage CFB [33]: 7.96% | Creatinine Mean CFB [34]: 5.3 µmol/L | Creatinine Mean percentage CFB [34]: 9.81% | Creatinine Mean CFB [35]: 6.6 µmol/L | Creatinine Mean percentage CFB [35]: 13.11% | Creatinine Mean CFB [36]: 3.5 µmol/L | Creatinine Mean percentage CFB [36]: 8.41% | Creatinine Mean CFB (200 mg q.d. (N = 69), week 0): 0.00 µmol/L | Creatinine Mean percentage CFB (200 mg q.d. (N = 69), week 0): 0.00% | Creatinine Mean CFB (200 mg q.d. (N = 69), week 1): 4.68 µmol/L | Creatinine Mean percentage CFB (200 mg q.d. (N = 69), week 1): 8.07% | Creatinine Mean CFB (200 mg q.d. (N = 69), week 2): 4.99 µmol/L | Creatinine Mean percentage CFB (200 mg q.d. (N = 69), week 2): 8.56% | Creatinine Mean CFB (200 mg q.d. (N = 69), week 4): 4.28 µmol/L | Creatinine Mean percentage CFB (200 mg q.d. (N = 69), week 4): 7.37% | Creatinine Mean CFB (200 mg q.d. (N = 69), week 8): 4.82 µmol/L | Creatinine Mean percentage CFB (200 mg q.d. (N = 69), week 8): 8.70% | Creatinine Mean CFB (200 mg q.d. (N = 69), week 12): 3.80 µmol/L | Creatinine Mean percentage CFB (200 mg q.d. (N = 69), week 12): 7.96% | Creatinine Mean CFB [37]: 1.9 µmol/L | Creatinine Mean percentage CFB [37]: 3.61% | Creatinine Mean CFB [38]: 2.7 µmol/L | Creatinine Mean percentage CFB [38]: 5.14% | Creatinine Mean CFB [39]: 4.6 µmol/L | Creatinine Mean percentage CFB [39]: 8.41%
